Experimental data reported in patent publication US10718769B2, “Compounds comprising one or more hydrophobic domains and a hydrophilic domain comprising peg moieties, useful for binding cells” (Roche Diagnostics Operations, Inc., priority 2013, dated 2020).
Several values for one entry are separate records, joined by “and”; a condition that tells them apart may be missing. Equal values may be shown once. Read-outs that look alike come from different tables or passages of the source.

What was measured:
Jurkat cells = settings: centrifugation 20 min, 500×g; within 5.5 h incubation with molecule
Method: Respective columns from left: 1: 10 min incubation with molecule. 2: 1 h incubation with molecule. 3: 3,5 h incubation with molecule. 4: 5.5 h min incubation with molecule. Following molecules were tested: 1255: 3′-(Myristic acid)2-PEG2000-dT-Biotin-TEG-5′ INVERS. 1234: 5′-(Cholesteryl-TEG)2-Spacer C18-dT-Biotin-TEG-3′; 1248: 3′-(Cholesteryl-TEG)2-PEG2000-Fluos-Biotin-TEG-5′ INVERS; 1254: 3′-(Cholesteryl-TEG)2-SpacerC18-Fluos-Biotin-TEG-5′ INVERS. […] Centrifugation characteristics: 20 min, 500×g.
(§1) Following molecules were tested: • 1255: 3′-(Myristic acid)2-PEG2000-dT-Biotin-TEG-5′ INVERS • 1234: 5′-(Cholesteryl-TEG)2-Spacer C18-dT-Biotin-TEG-3′ • 1248: 3′-(Cholesteryl-TEG)2-PEG2000-Fluos-Biotin-TEG-5′ INVERS • 1254: 3′-(Cholesteryl-TEG)2-SpacerC18-Fluos-Biotin-TEG-5′ INVERS
(§2) Centrifugation characteristics: 20 min, 500×g.

WBC [1] = assay: WBC recovery rate after centrifugation (stabilization of cells, Example 5); format: cell-based; settings: centrifugation 20 min
Method: (§3) Centrifugation characteristics: 10 min, 300×g.
as §3
The respective left, middle and right columns per assay represent different Experimenters 1, 2 and 3. […] Centrifugation characteristics: 10 min, 300×g. Molecule: Cholesteryl-TEG-Cholesteryl-TEG-(SpacerC18)7-Fluos-Biotin-TEG.
Following molecules were tested: 1234: 5′-(Cholesteryl-TEG)2-Spacer C18-dT-Biotin-TEG-3′; 1248: 3′-(Cholesteryl-TEG)2-PEG2000-Fluos-Biotin-TEG-5′ INVERS; 1254: 3′-(Cholesteryl-TEG)2-SpacerC18-Fluos-Biotin-TEG-5′ INVERS; 1255: 3′-(Myristic acid)2-PEG2000-dT-Biotin-TEG-5′ INVERS. […] Centrifugation characteristics: 20 min, 300×g. Respective left column: 10 min incubation with molecule. Respective middle column: 1 h min incubation with molecule. Respective right column: 2 h incubation with molecule.
Following molecules were tested: 1255: 3′-(Myristic acid)2-PEG2000-dT-Biotin-TEG-5′ INVERS; 1234: 5′-(Cholesteryl-TEG)2-Spacer C18-dT-Biotin-TEG-3′; 1248: 3′-(Cholesteryl-TEG)2-PEG2000-Fluos-Biotin-TEG-5′ INVERS; 1254: 3′-(Cholesteryl-TEG)2-SpacerC18-Fluos-Biotin-TEG-5′ INVERS. […] Centrifugation characteristics: 20 min, 500×g. Respective left column: 10 min incubation with molecule. Respective middle column: 1 h min incubation with molecule. Respective right column: 3 h incubation with molecule.
Following molecules were tested: 1255: 3′-(Myristic acid)2-PEG2000-dT-Biotin-TEG-5′ INVERS; 1234: 5′-(Cholesteryl-TEG)2-Spacer C18-dT-Biotin-TEG-3′; 1248: 3′-(Cholesteryl-TEG)2-PEG2000-Fluos-Biotin-TEG-5′ INVERS; 1254: 3′-(Cholesteryl-TEG)2-SpacerC18-Fluos-Biotin-TEG-5′ INVERS. […] Centrifugation characteristics: 20 min, 1000×g. Respective left column: 10 min incubation with molecule. Respective middle column: 1 h min incubation with molecule. Respective right column: 2 h incubation with molecule.
The effect of compounds of the invention on stabilizing cells and on immobilization was determined.
Centrifugation characteristics: 10 min, 300×g. A: Choleseryl-TEG-Cholesteryl-TEG-(SpacerC18)7-Fluos-Biotin-TEG.
Centrifugation characteristics: 10 min, 300×g. Molecule: Cholesteryl-TEG-Cholesteryl-TEG-(SpacerC18)7-Fluos-Biotin-TEG.
Centrifugation characteristics: 20 min, 300×g.
as §1

MDA-MB468 cells = settings: centrifugation 20 min, 500×g; within 5 h incubation with molecule
Method: Respective columns from left: 1: 10 min incubation with molecule. 2: 1 h incubation with molecule. 3: 3 h incubation with molecule. 4: 5 h min incubation with molecule. Following compounds for use according to the invention were tested: 1234: 5′-(Cholesteryl-TEG)2-Spacer C18-dT-Biotin-TEG-3′; 1255: 3′-(Myristic acid)2-PEG2000-dT-Biotin-TEG-5′ INVERS. […] Centrifugation characteristics: 20 min, 500×g.
Following compounds of the invention were tested: • 1234: 5′-(Cholesteryl-TEG)2-Spacer C18-dT-Biotin-TEG-3′ • 1255: 3′-(Myristic acid)2-PEG2000-dT-Biotin-TEG-5′ INVERS
as §2

white blood cells (WBCs) = settings: for WBC per well: 300 000 WBCs/well
Method: Aim of this experiment: Testing of the white blood cell immobilization on a streptavidin-coated surface using different molecules of the invention. In particular, the performance of a single cholesterol-molecule and different dual-linker molecules (i.e. containing two hydrophobic moieties) was tested. In detail, immobilization of white blood cells (WBCs) on a Streptavidin-coated surface using different linker molecules was tested on a 12-well plate: 300 000 WBCs/well. This was followed by the measurement of the cell recovery rate after immobilization and washing of the cells using the Cellavista instrument (10× Nuclei Operator s9s5).

MDA-MB468 = assay: Labelling of cells using compounds of the invention; format: cell-based
Text: (§4) 2. Labelling of Cells Using Compounds of the Invention

Epithelial cells = assay: as above; format: cell-based
Text: as §4

CHO = assay: as above; format: cell-based
Text: as §4

NIH 3T3 = assay: as above; format: cell-based; settings: * one cell not stained
Text: as §4

Jurkats = assay: as above; format: cell-based
Text: as §4

Hela = assay: as above; format: cell-based; settings: * one cell stained weakly
Text: as §4

COS 7 = assay: as above; format: cell-based
Text: as §4

U937 = assay: as above; format: cell-based
Text: as §4

WBC [2] = assay: Immobilization of cells, recovery rate of cells (Example 3 A and D); format: cell-based; settings: WBCs
Method: In the following experiment, the recovery rate of cells was determined.

WBCs = assay: Labelling of cells using compounds of the invention; format: cell-based
Text: as §4

[3] = Sample 2, compound concentration: 100 pmol/10e6 WBCs
[4] = Sample 2, compound concentration: 1 nmol/10e6 WBCs

| Compound | Stability of Jurkat culture cells during centrifugation (Jurkat cells) | Labelling (staining) of MDA-MB468 (MDA-MB468) | Labelling (staining) of Epithelial cells (Epithelial cells) | Labelling (staining) of CHO (CHO) | Labelling (staining) of NIH 3T3 (NIH 3T3) | Labelling (staining) of Jurkats (Jurkats) | Labelling (staining) of Hela (Hela) | Labelling (staining) of COS 7 (COS 7) | Labelling (staining) of U937 (U937) | also measured |
| --- | --- | --- | --- | --- | --- | --- | --- | --- | --- | --- |
| 3′-(Cholesteryl-TEG)2-PEG2000-Fluos-Biotin-TEG-5′ INVERS [compound 1248] | stable during centrifugation processes |  |  |  |  |  |  |  |  |  |
| 3′-(Myristic acid)2-PEG2000-dT-Biotin-TEG-5′ INVERS [compound 1255] | stable during centrifugation processes |  |  |  |  |  |  |  |  | Performance in WBC recovery rate after centrifugation (ranking) (WBC [1]; 300×g): followed by compound 1255; Performance in WBC recovery rate after centrifugation (ranking) (WBC [1]; 500×g): followed by molecule 1255; Stability of MDA-MB468 culture cells during centrifugation (MDA-MB468 cells): stable during centrifugation processes |
| 5′-(Cholesteryl-TEG)2-Spacer C18-Fluos-Biotin_TEG-3′ INVERS [29.891254] | stable during centrifugation processes |  |  |  |  |  |  |  |  | WBC per well (white blood cells (WBCs); Sample 1, first block of the table (r4-r12), footnote: 1 nmol/10e6 WBCs): 157660 and 190148 and 170850; WBC per well (white blood cells (WBCs); Sample 1, second block of the table (r13-r21), compound concentration: 1 nmol/10e6 WBCs): 244649 and 234262 and 260760; Mean (WBC per well) (white blood cells (WBCs); [3]): 197067.00; WBC per well (white blood cells (WBCs); [3]): 200184 and 205917 and 185100; Mean (WBC per well) (white blood cells (WBCs); [4]): 245376.00; WBC per well (white blood cells (WBCs); [4]): 244396 and 244304 and 247428 |
| 5′-(Cholesteryl-TEG)2-Spacer C18-dT-Biotin-TEG-3′ [compound 1234] | stable during centrifugation processes |  |  |  |  |  |  |  |  | Stability of MDA-MB468 culture cells during centrifugation (MDA-MB468 cells): stable during centrifugation processes |
| 5′-CholesterylTEG-CholesterylTEG-PEG2000-Fluos-3′ [BMO 29.891133] |  | √ | √ | √ | √ | √ | √ | √ | √ |  |
| 5′-CholesterylTEG-CholesterylTEG-PEG2000-Fluos-BiotinTEG-3′ [BMO 29.891180] |  |  |  |  |  |  |  |  |  | staining (Remarks) (WBC [2]): strong |
| CCCCCCCCCCCCCCCCCCN1C(=CC=CC2=[N+](CCCCCCCCCCCCCCCCCC)c3ccccc3C2(C)C)C(C)(C)c2ccccc21.[O-][Cl+3]([O-])([O-])[O-] [1,1′-Dioctadecyl-3,3,3′,3′-tetramethylindocarbocyanin perchlorate] |  | √ | √ | √ | √* | √ | √ | √ | √ | Labelling (staining) of WBCs (WBCs): √ not all |
| CCCCC/C=C\C/C=C\CCCCCCCCN1C(=CC=CC2=[N+](CCCCCCCC/C=C\C/C=C\CCCCC)c3ccccc3C2(C)C)C(C)(C)c2ccccc21.[O-][Cl+3]([O-])([O-])[O-] [Linol, 1,1′-dilinoleyl-3,3,3′,3′-tetramethylindocarbocyanine perchlorate] |  | √ | √ | √ | √ | √ | √ | √ | √ |  |
| CCCCCCCCCCCCCCCCCCCCCC[N+]1=C(/C=C/C=C2/N(CCCCCCCCCCCCCC)c3ccccc3C2(C)C)C(C)(C)c2ccccc21.[I-] [PKH26] |  | √ | √ not all | √ | √ | √ | √* | √ | √ |  |
